Measurements from publication PMC9964319, “Half-Sandwich Rhodium Complexes with Releasable N-Donor Monodentate Ligands: Solution Chemical Properties and the Possibility for Acidosis Activation” (Pharmaceutics, 2023).
Read-outs that look alike come from different tables or passages of the source.

What was measured:
[1] = Formation constants of mixed-ligand half-sandwich complexes (UV-vis and 1H NMR); format: physicochemical; details: aqua complex + monodentate ligand; I = 0.10 M (KCl); t = 25.0 °C; UV-vis and 1H NMR
Experimental: NMR spectroscopic studies were carried out on a Bruker Avance III HD Ascend 500 Plus instrument. For the aqueous samples, ^1H NMR spectra were recorded with the WATERGATE water suppression pulse scheme using DSS internal standard. The highest peak of DSS was 0.00 ppm. The measurement was very similar to the UV-vis measurement since the complex–to–monodentate ligand ratio was also between 0–10 equivalents; the spectra were recorded after the given waiting time. […] This technique was useful in those cases where no spectral change was visible during the UV-vis titrations.
In both measurement methods, the formation constant (K) was obtained using the computer program PSEQUAD [38].
It is worthwhile to mention that the liberation of the bidentate ligand was not detected even at higher monodentate ligand excess (~10), which means that the disruption of the bond between the bidentate ligand and the metal center is not feasible under these conditions. The calculated formation constants are compared in Figure 5 and are collected in Table S2. The formation of the mixed-ligand complexes was not detected in three cases under the applied conditions, namely [Ru(p-cym)(en)(mim)]^2+, [Ru(p-cym)(phen)(mim)]^2+, and [Ru(p-cym)(en)(Py)]^2+. For these complexes, only a higher limit of the formation constant could be given, assuming that a maximum of 5% of the complex would form (limit of detection) under the conditions used for ^1H NMR spectroscopy. Based on Figure 5, the following trends are observed in the formation constants: (i) [RhCp*(en)(H2O)]^2+ and [RhCp*(phen)(H2O)]^2+ have a stronger monodentate ligand-binding ability than the Ru(p-cym) analogs; (ii) the formation constants of the [Ru(p-cym)(8HQH-1)(N)]^+ complexes are similar or somewhat higher than those of the RhCp* analogs; (iii) a stability trend for the monodentate ligand: mim > bim > Py (iv) and the bidentate ligand: 8HQH-1 > phen ≥ en can be seen.

[2] = Proton dissociation constants of the coordinated water in [M(arene)(N,N/O)(H2O)]2+/+ complexes (UV-vis titration)
Description: The proton dissociation of the aqua ligand in the [M(arene)(N,N/O)(H2O)]^2+/+ complexes (Scheme 2) results in the inert mixed-hydroxido species (general formula: [M(arene)(N,N/O)(OH)]^+/0).

[3] = system: Colo205 human colon adenocarcinoma cell line (doxorubicin-sensitive); experiment: MTT assay, cytotoxicity at pH 6 and 7; format: cell-based; details: Colo205, 72 h incubation, read-out: IC50
Experimental: (§1) All cell culture reagents were obtained from Sigma-Aldrich (Merck KGaA, Darmstadt, Germany) and plasticware from Sarstedt (Nümbrecht, Germany). Human colonic adenocarcinoma cell lines Colo205 (catalog number: ATCC-CCL-222) and its doxorubicin-resistant counterpart Colo320 (catalog number: ATCC-CCL-220.1) were purchased from LGC Promochem (Teddington, UK). The cells were cultured in RPMI 1640 medium supplemented with 10% heat-inactivated fetal bovine serum, 2 mM L-glutamine, 1 mM sodium pyruvate, and 100 mM HEPES buffer, adjusting the pH to 6.0 or 7.0. The cells were incubated at 37 °C in a 5% CO2–95% air atmosphere. The semiadherent human colon cancer cells were detached with Trypsin-Versene solution for 5 min at 37 °C.
(§2) The solutions were freshly prepared prior to measurements (see Section 2.1). […] Firstly, these samples were diluted in complete culture medium; then, two-fold serial dilutions of the compounds were prepared in 100 μL of RPMI 1640, horizontally. The semiadherent colonic adenocarcinoma cells were treated with Trypsin-Versene solution. They were adjusted to a density of 1 × 10^4 cells in 100 μL of RPMI 1640 medium and were added to each well, with the exception of the medium control wells. The final volume of the wells containing compounds and cells was 200 μL. Samples were triplicated. The pH of the medium was adjusted to 6.0 or 7.0.
(§3) The culture plates were incubated at 37 °C for 72 h; at the end of the incubation period, 20 μL of MTT solution (from a stock solution of 5 mg/mL) was added to each well. After incubation at 37 °C for 4 h, 100 μL of SDS solution (10% in 0.01 M HCI) was added to each well, and the plates were further incubated at 37 °C overnight. Cell growth was determined by measuring the optical density (OD) at 540/630 nm with a Multiscan EX ELISA reader (Thermo Labsystems, Cheshire, WA, USA). […] Curves were fitted using GraphPad Prism software (2022, version 9.4.1, Graphpad Software (LLC) d.b.a Dotmatics, San Diego, CA, USA) using the sigmoidal dose–response model (comparing variable and fixed slopes).
(§4) The pH-dependent solution speciation of the selected mixed-ligand complexes is an important feature in the hypothesized mechanism of action, and the modeling of acidosis is necessary for the in vitro anticancer assays. In order to find out the cytotoxicity difference based on the pH of the medium, cytotoxic activity was determined at pH 6 and 7 by MTT assay in two human colon adenocarcinoma cell lines (doxorubicin-sensitive Colo205 and doxorubicin-resistant Colo320). […] The mixed-ligand complexes were prepared prior to the measurements, as was already described in Section 2.1. With this method, the effect of the different counter ions could be avoided, and a more adequate comparison of the mixed-ligand complexes could be conducted.

[4] = system: Colo320 human colon adenocarcinoma cell line (doxorubicin-resistant); experiment: MTT assay, cytotoxicity at pH 6 and 7; format: cell-based; details: Colo320, 72 h incubation, read-out: IC50
Experimental: as §1, §2, §3, §4

[5] = system: E. coli 32313 (resistant); experiment: Antibacterial assay, MIC in 96-well plates at different pH; format: cell-based; details: E. coli resistant, after one day, read-out: MIC
Description: (§5) The antibacterial effect was studied in two Gram-positive and in two Gram-negative strains. The Gram-positive S. aureus ATCC 25923 (ATCC, Manassas, VA, USA) is a methicillin-susceptible reference bacterial strain, while S. aureus 272123 is a clinical isolate and resistant to methicillin and ofloxacin (MRSA), which was given by Prof. Dr. Leonard Amaral (Institute of Hygiene and Tropical Medicine, Lisbon, Portugal). The Gram-negative strains were E. coli ATCC 25922 (ATCC, Manassas, VA, USA), which is sensitive to antibiotics, and E. coli 32313 (provided by the Institute of Clinical Microbiology, University of Szeged, Hungary), which is resistant to different antibiotics (trimethoprim/sulfamethoxazole, gentamicin, ciprofloxacin, and norfloxacin).
(§6) The minimum inhibitory concentrations (MICs) of the compounds were determined in 96-well plates based on the Clinical and Laboratory Standard Institute guidelines. The compounds were diluted in 100 μL of Mueller Hinton broth. Then, an overnight bacterial culture diluted 10,000 times in 100 μL of medium was added to each well, with the exception of the medium control wells. For each strain and each tested compound, four pH values were set (5, 6, 7, and 8). Each sample was triplicated.

[6] = system: S. aureus ATCC 25923 (methicillin-susceptible); experiment: as above; format: cell-based; details: S. aureus sensitive, after one day, read-out: MIC
Description: as §5, §6

S. aureus 272123 (MRSA) = experiment: as above; format: cell-based; details: read-out: MIC
Description: as §5, §6

[7] = system: E. coli ATCC 25922 (sensitive); experiment: as above; format: cell-based; details: E. coli sensitive, after one day, read-out: MIC
Description: as §5, §6

[8] = pH 6, listed as [RhCp*(phen)Cl]Cl +Py
[9] = pH 7, listed as [RhCp*(phen)Cl]Cl +Py

In the case of `Cc1c(C)c(C)[c-](C)c1C.[Rh+2][O]c1cccc2cccnc12.c1ccc2[nH]cnc2c1` [[RhCp*(8HQH-1)(H2O)]+ + bim], the “Formation constant logK of mixed-ligand complex” value (“Formation constant logK” below) [1] is reported as 3.4 ± 0.1.
With `Cc1c(C)c(C)[c-](C)c1C.O.[O-]c1cccc2cccnc12.[Rh+3]` [[RhCp*(8HQH-1)(H2O)]+] the “pKa of the coordinated water molecule” value [2] was 10.6±0.1.
Work on `Cc1c(C)c(C)[c-](C)c1C.[Cl-].[Rh+2][O]c1cccc2cccnc12.c1ccncc1` [[RhCp*(8HQH−1)Cl] +Py] yielded an IC50 ([3]; pH 6) of 7.2 ± 0.4 µM, an IC50 ([3]; pH 7) of 7.3 ± 0.3 µM and an IC50 ([4]; pH 6) of 6.2 ± 0.5 µM. For the same compound, the IC50 ([4]; pH 7) was 5.9 ± 0.1 µM, the “Formation constant logK” value [1] was 3.0 ± 0.1 and the MIC ([5]; pH 6) was >100 µM. The MIC ([5]; pH 7) was >100 µM, the MIC ([6]; pH 7) was 12.5 µM and the MIC (S. aureus 272123 (MRSA); pH 6, after one day) was 50 µM. The MIC (S. aureus 272123 (MRSA); pH 7, after one day) was 12.5 µM, the MIC ([7]; pH 6) was >100 µM and the MIC ([7]; pH 7) was >100 µM.
In the case of `Cc1c(C)c(C)[c-](C)c1C.[Cl][Rh+][O]c1cccc2cccnc12` [[RhCp*(8HQH−1)Cl]], the IC50 ([3]; pH 6) is reported as 8.1 ± 0.5 µM, the IC50 ([3]; pH 7) is reported as 8.8 ± 0.4 µM and the IC50 ([4]; pH 6) is reported as 6.1 ± 0.2 µM. For the same compound, the IC50 ([4]; pH 7) was 3.3 ± 0.1 µM, the MIC ([5]; pH 5) was > 100 µM and the MIC ([5]; pH 6) was >100 µM. The MIC ([5]; pH 7) was >100 µM, the MIC ([5]; pH 8) was > 100 µM and the MIC ([6]; pH 7) was 12.5 µM. It also gave an MIC ([6]; pH 8) of 12.5 µM, an MIC (S. aureus 272123 (MRSA); pH 5, after one day) of 50 µM and an MIC (S. aureus 272123 (MRSA); pH 6, after one day) of 12.5 µM. The MIC (S. aureus 272123 (MRSA); pH 7, after one day) was 12.5 µM, the MIC (S. aureus 272123 (MRSA); pH 8, after one day) was 12.5 µM and the MIC ([7]; pH 5) was > 100 µM. For the same compound, the MIC ([7]; pH 6) was >100 µM, the MIC ([7]; pH 7) was >100 µM and the MIC ([7]; pH 8) was > 100 µM.
In the case of `Cc1c(C)c(C)[c-](C)c1C.NCCN.[Rh+3].c1ccc2[nH]cnc2c1` [[RhCp*(en)(H2O)]2+ + bim], the “Formation constant logK” value [1] is reported as 3.3 ± 0.2.
For `Cc1c(C)c(C)[c-](C)c1C.[Rh+3].c1ccncc1.c1cnc2c(c1)ccc1cccnc12` [[RhCp*(phen)(Py)]^2+], the “Formation constant logK” value [1] was 4.1 ± 0.1, the MIC ([5]; pH 5) was > 100 µM and the MIC [5, 8] was >100 µM. For the same compound, the MIC [5, 9] was >100 µM, the MIC ([5]; pH 8) was > 100 µM and the MIC [6, 9] was >100 µM. The MIC ([6]; pH 8) was > 100 µM, the MIC (S. aureus 272123 (MRSA); pH 5, after one day) was > 100 µM and the MIC (S. aureus 272123 (MRSA); pH 6, after one day, listed as [RhCp*(phen)Cl]Cl +Py) was >100 µM. For the same compound, the MIC (S. aureus 272123 (MRSA); pH 7, after one day, listed as [RhCp*(phen)Cl]Cl +Py) was >100 µM, the MIC (S. aureus 272123 (MRSA); pH 8, after one day) was > 100 µM and the MIC ([7]; pH 5) was > 100 µM. For the same compound, the MIC [7, 8] was >100 µM, the MIC [7, 9] was >100 µM and the MIC ([7]; pH 8) was > 100 µM.
In the case of `Cc1c(C)c(C)[c-](C)c1C.[Rh+3].c1ccc2[nH]cnc2c1.c1cnc2c(c1)ccc1cccnc12` [[RhCp*(phen)(bim)]^2+], the “Formation constant logK” value [1] is reported as 4.9 ± 0.2.
